ChEMBL document CHEMBL1649335, “Discovery of {1-[4-(2-{hexahydropyrrolo[3,4-c]pyrrol-2(1H)-yl}-1H-benzimidazol-1-yl)piperidin-1-yl]cyclooctyl}methanol, systemically potent novel non-peptide agonist of nociceptin/orphanin FQ receptor as analgesic for the treatment of neuropathic pain: design, synthesis, and structure-activity …” (Bioorg Med Chem, 2010)
Activity calls are given as the source filed them.

Legend:
Nociceptin receptor [1] = molecular target: T1, Nociceptin receptor (Homo sapiens, UniProt P41146)
Nociceptin receptor [2] = molecular target: T1, Nociceptin receptor; test: biochemical
[3] = Inhibition of rat 5-HT receptor
[4] = Inhibition of rat phospholipase C
Mu-type opioid receptor = Mu-type opioid receptor (Homo sapiens, UniProt P35372)
Rattus norvegicus [5] = test: Antiallodynic activity against von Frey hair mechanically stimulated neuropathic pain in Sprague-Dawley rat assessed as increase of response threshold at 1 to 30 mg/kg, sc after 30 mins to 4 hrs; type: functional, organism-based
Rattus norvegicus [6] = test: Antiallodynic activity against von Frey hair mechanically stimulated neuropathic pain in Sprague-Dawley rat assessed as assessed as minimum effective dose to increase of response threshold at 1 to 30 mg/kg, sc after 30 mins to 4 hrs; type: functional, organism-based
Rattus norvegicus [7] = test: Antiallodynic activity against von Frey hair mechanically stimulated neuropathic pain in Sprague-Dawley rat assessed as effect on allodynia in contralateral paw at 1 to 30 mg/kg, sc after 30 mins to 4 hrs; type: functional, organism-based
[8] = Inhibition of rat N-type Ca2+ channel
[9] = Stimulation of rat adenylate cyclase
[10] = molecular target: Kappa-type opioid receptor (Homo sapiens, UniProt P41145)
in vitro = conditions: human, liver microsomes
[11] = Inhibition of rat choline transporter
[12] = molecular target: T2, Voltage-gated L-type calcium channel (Rattus norvegicus, UniProt P22002+Q02485+P27732); test: Inhibition of rat L-type Ca2+ channel dihydropyridine site
[13] = Inhibition of rat Na+ channel site 2
[14] = Inhibition of rat GABA transporter
[15] = Inhibition of rat K+ATP channel
[16] = Inhibition of rat chloride channel
[17] = molecular target: T2, Voltage-gated L-type calcium channel; test: Inhibition of rat L-type Ca2+ channel verapamil site
Tyrosine 3-monooxygenase = Tyrosine 3-monooxygenase (Rattus norvegicus, UniProt P04177); test: Inhibition of rat tyrosine hydroxylase
Rattus norvegicus [18] = test: Antiallodynic activity against von Frey hair mechanically stimulated neuropathic pain in intrathecally dosed Sprague-Dawley rat assessed as increase of response threshold per site after 20 mins; type: functional
Rattus norvegicus [19] = test: Antiallodynic activity against von Frey hair mechanically stimulated neuropathic pain in intrathecally dosed Sprague-Dawley rat assessed as assessed as minimum effective dose to increase of response threshold per site after 20 mins; type: functional
Rattus norvegicus [20] = test: Antiallodynic activity against von Frey hair mechanically stimulated neuropathic pain in Sprague-Dawley rat assessed as increase of response threshold per site at 0.55 to 55 nmol/site administered intrathecally after 1 hr; type: functional, organism-based
Rattus norvegicus [21] = test: Antiallodynic activity against von Frey hair mechanically stimulated neuropathic pain in Sprague-Dawley rat assessed as assessed as minimum effective dose to increase of response threshold per site at 0.55 to 55 nmol/site administered intrathecally after 1 hr; type: functional, organism-based
Rattus norvegicus [22] = test: Antiallodynic activity against von Frey hair mechanically stimulated neuropathic pain in Sprague-Dawley rat assessed as increase of response threshold per site at 0.55 to 170 nmol/site, icv after 1 hr; type: functional, organism-based
Rattus norvegicus [23] = test: Antiallodynic activity against von Frey hair mechanically stimulated neuropathic pain in Sprague-Dawley rat assessed as assessed as minimum effective dose to increase of response threshold per site at 0.55 to 170 nmol/site, icv after 1 hr; type: functional, organism-based
Rattus norvegicus [24] = test: Antiallodynic activity against von Frey hair mechanically stimulated neuropathic pain in Sprague-Dawley rat assessed as increase of response threshold per site at 0.55 to 170 nmol/site, icv after 20 mins; type: functional, organism-based
Rattus norvegicus [25] = test: Antiallodynic activity against von Frey hair mechanically stimulated neuropathic pain in Sprague-Dawley rat assessed as assessed as minimum effective dose to increase of response threshold per site at 0.55 to 170 nmol/site, icv after 20 mins; type: functional, organism-based
Rattus norvegicus [26] = test: Antiallodynic activity against von Frey hair mechanically stimulated neuropathic pain in Sprague-Dawley rat assessed as effect on allodynia in contralateral paw at 0.55 to 170 nmol/site administered intrathecally after 20 mins; type: functional, organism-based
Rattus norvegicus [27] = test: Antiallodynic activity against von Frey hair mechanically stimulated neuropathic pain in Sprague-Dawley rat assessed as effect on allodynia in contralateral paw at 0.55 to 170 nmol/site administered intrathecally after 1 hr; type: functional, organism-based
Rattus norvegicus [28] = test: Antiallodynic activity against von Frey hair mechanically stimulated neuropathic pain in icv dosed Sprague-Dawley rat assessed as decrease of response threshold in contralateral paw after 20 mins; type: functional, organism-based
Rattus norvegicus [29] = test: Antiallodynic activity against von Frey hair mechanically stimulated neuropathic pain in icv dosed Sprague-Dawley rat assessed as decrease of response threshold in contralateral paw after 1 hr; type: functional, organism-based
Glutamate NMDA receptor = test: Inhibition of rat NMDA receptor; type: protein-complex assay

T1 sequence (P41146 whole entry): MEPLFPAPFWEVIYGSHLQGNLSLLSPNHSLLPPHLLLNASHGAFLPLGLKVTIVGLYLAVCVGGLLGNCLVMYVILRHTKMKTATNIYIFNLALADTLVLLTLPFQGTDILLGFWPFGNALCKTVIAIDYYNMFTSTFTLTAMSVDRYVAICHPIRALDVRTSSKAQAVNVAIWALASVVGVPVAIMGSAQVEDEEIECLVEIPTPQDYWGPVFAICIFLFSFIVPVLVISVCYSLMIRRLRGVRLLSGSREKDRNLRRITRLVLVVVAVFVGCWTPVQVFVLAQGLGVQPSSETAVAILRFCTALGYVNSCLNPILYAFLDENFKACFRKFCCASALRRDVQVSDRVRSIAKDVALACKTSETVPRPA
Mu-type opioid receptor, sequence (P35372 whole entry): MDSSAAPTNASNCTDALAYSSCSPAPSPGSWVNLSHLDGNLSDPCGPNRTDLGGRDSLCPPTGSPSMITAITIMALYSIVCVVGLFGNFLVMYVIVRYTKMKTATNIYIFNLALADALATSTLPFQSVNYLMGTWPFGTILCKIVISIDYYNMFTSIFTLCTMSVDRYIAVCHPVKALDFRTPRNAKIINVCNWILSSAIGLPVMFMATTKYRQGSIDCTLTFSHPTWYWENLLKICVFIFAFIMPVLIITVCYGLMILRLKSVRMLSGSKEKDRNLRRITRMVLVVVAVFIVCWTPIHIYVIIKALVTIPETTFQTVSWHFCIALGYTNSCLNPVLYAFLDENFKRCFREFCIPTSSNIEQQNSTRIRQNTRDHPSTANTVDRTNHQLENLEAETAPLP
Kappa-type opioid receptor, sequence (P41145 whole entry): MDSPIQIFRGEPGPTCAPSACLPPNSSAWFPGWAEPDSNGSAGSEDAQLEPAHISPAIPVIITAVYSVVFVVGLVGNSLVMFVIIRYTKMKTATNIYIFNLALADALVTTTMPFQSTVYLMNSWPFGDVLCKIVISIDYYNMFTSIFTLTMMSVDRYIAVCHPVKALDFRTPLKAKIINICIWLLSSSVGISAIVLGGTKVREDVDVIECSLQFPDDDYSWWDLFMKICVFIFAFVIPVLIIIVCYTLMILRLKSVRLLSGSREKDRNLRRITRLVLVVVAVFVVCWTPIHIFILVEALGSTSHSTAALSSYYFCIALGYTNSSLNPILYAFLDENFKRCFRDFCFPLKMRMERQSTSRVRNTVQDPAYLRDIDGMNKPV
Tyrosine 3-monooxygenase, sequence (P04177 whole entry): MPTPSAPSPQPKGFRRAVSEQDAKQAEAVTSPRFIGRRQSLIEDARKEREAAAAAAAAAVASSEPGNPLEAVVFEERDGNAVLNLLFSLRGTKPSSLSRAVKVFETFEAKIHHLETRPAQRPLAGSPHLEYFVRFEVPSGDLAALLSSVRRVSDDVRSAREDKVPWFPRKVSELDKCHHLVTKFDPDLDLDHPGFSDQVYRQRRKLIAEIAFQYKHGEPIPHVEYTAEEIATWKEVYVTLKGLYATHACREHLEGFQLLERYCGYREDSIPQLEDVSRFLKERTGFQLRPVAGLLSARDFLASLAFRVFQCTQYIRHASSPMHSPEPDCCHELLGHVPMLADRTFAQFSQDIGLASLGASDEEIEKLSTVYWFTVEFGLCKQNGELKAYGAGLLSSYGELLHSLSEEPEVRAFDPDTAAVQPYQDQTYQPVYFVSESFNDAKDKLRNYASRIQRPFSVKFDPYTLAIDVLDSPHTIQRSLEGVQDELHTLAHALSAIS

In the case of `OCC1(N2CCC(n3c(-c4ccc(F)c(Cl)c4)nc4ccccc43)CC2)CCCCC1`, the EC50 (Nociceptin receptor [1]) is reported as 53 nM and the Ki (Nociceptin receptor [2]) is reported as 4.29 nM.
`NCCc1c[nH]c2ccc(O)cc12` [SEROTONIN] showed an IC50 [3] of 2.7 nM.
In the case of `NC[C@@H]1O[C@H](O[C@H]2[C@@H](O)[C@H](O[C@@H]3[C@@H](O)[C@H](N)C[C@H](N)[C@H]3O[C@H]3O[C@H](CN)[C@@H](O)[C@H](O)[C@H]3N)O[C@@H]2CO)[C@H](N)[C@@H](O)[C@@H]1O` [FRAMYCETIN], the IC50 [4] is reported as 7.9 nM.
In the case of `CN1CCN(c2nc3ccccc3n2C2CCN(C3(C(=O)O)CCCCCCC3)CC2)CC1`, the Ki (Nociceptin receptor [2]) is reported as over 250 nM.
In the case of `OCC1(N2CCC(n3c(-c4ccc(Cl)cc4)nc4ccccc43)CC2)CCCCCCC1`, the EC50 (Mu-type opioid receptor) is reported as over 10000 nM, the EC50 (Nociceptin receptor [1]) is reported as 9.1 nM and the Ki (Nociceptin receptor [2]) is reported as 0.15 nM.
With `CC1(C)CN(c2nc3ccccc3n2C2CCN(C3(CO)CCCCCCC3)CC2)CCN1` the ED50 (Rattus norvegicus [5]) was “inactive”, the MED (Rattus norvegicus [6]) was “inactive” and the Activity (Rattus norvegicus [7]) was “inactive”. The EC50 (Nociceptin receptor [1]) was 23 nM and the Ki (Nociceptin receptor [2]) was 4.54 nM.
In the case of `C[C@@H](O)[C@@H]1NC(=O)[C@H](Cc2ccc(O)cc2)NC(=O)[C@@H]2C[C@@H](O)CN2C(=O)[C@H](CC(N)=O)NC(=O)[C@@H]2CSSC[C@@H]3NC(=O)[C@H](CO)NC(=O)[C@H](CO)NC(=O)CNC(=O)[C@@H]4C[C@@H](O)CN4C(=O)[C@H](CO)NC(=O)[C@H](CCCCN)NC(=O)[C@@H](N)CSSC[C@H](NC(=O)[C@H](CSSC[C@@H](C(=O)N[C@@H](Cc4ccc(O)cc4)C(N)=O)NC(=O)[C@H](CCCNC(=N)N)NC(=O)[C@H](CCCCN)NC1=O)NC(=O)[C@H](CC(N)=O)NC(=O)[C@H](Cc1ccc(O)cc1)NC(=O)[C@H](CO)NC(=O)[C@H]([C@@H](C)O)NC(=O)[C@@H]1C[C@@H](O)CN1C(=O)[C@H](CO)NC3=O)C(=O)N[C@@H](CCCNC(=N)N)C(=O)N[C@@H](CO)C(=O)N2`, the IC50 [8] is reported as 0.045 nM.
In the case of `C=C[C@@]1(C)CC(=O)[C@]2(O)[C@@]3(C)[C@@H](O)CCC(C)(C)[C@@H]3[C@H](O)[C@H](OC(C)=O)[C@@]2(C)O1` [COLFORSIN], the EC50 [9] is reported as 4300 nM.
In the case of `CC1CN(c2nc3ccccc3n2C2CCN(C3(CO)CCCCCCC3)CC2)CCN1` (stereo not drawn), the EC50 [10] is reported as 366 nM, the EC50 (Mu-type opioid receptor) is reported as 1770 nM and the EC50 (Nociceptin receptor [1]) is reported as 38 nM. The half-life at 1 µM (in vitro) was 19.7 min and the Ki (Nociceptin receptor [2]) was 0.96 nM.
`CN1CCN(c2nc3ccccc3n2C2CCN(C3(CO)CCCCCCC3)CC2)CC1` showed an EC50 [10] of 18 nM, an EC50 (Nociceptin receptor [1]) of 17 nM and a half-life at 1 µM (in vitro) of 9.5 min. The Ki (Nociceptin receptor [2]) was 4.29 nM.
Compound `C[N+]1(C)CCO[C@@](O)(c2ccc(-c3ccc([C@@]4(O)C[N+](C)(C)CCO4)cc3)cc2)C1` [HEMICHOLINIUM DIBROMIDE] has an IC50 [11] of 7.7 nM.
With `CCOC(=O)C1=C(C)NC(C)=C(C(=O)OC)C1c1cccc([N+](=O)[O-])c1` (stereo not drawn) [NITRENDIPINE] the IC50 [12] was 1.3 nM.
With `COc1ccc(C(=O)O[C@H]2CC[C@@]3(C)[C@@H]4CC[C@H]5[C@]6(O)C[C@H](O)[C@@]7(O)[C@@H](CN8C[C@@H](C)CC[C@H]8[C@@]7(C)O)[C@]6(O)C[C@@]53O[C@]24O)cc1OC` [VERATRIDINE] the IC50 [13] was 10700 nM.
Work on `O=C(O)C1CCCNC1` (stereo not drawn) [NIPECOTIC ACID] yielded an IC50 [14] of 7170 nM.
In the case of `COc1ccc(Cl)cc1C(=O)NCCc1ccc(S(=O)(=O)NC(=O)NC2CCCCC2)cc1` [GLYBURIDE], the IC50 [15] is reported as 1.1 nM.
In the case of `C=C(C)[C@@H]1[C@H]2OC(=O)[C@@H]1[C@]1(O)C[C@H]3O[C@]34C(=O)O[C@H]2[C@]14C` [PICROTOXININ], the IC50 [16] is reported as 385 nM.
With `COc1ccc(CCN(C)CCCC(C#N)(c2cc(OC)c(OC)c(OC)c2)C(C)C)cc1OC` (stereo not drawn) [GALLOPAMIL] the IC50 [17] was 23 nM.
Compound `N[C@@H](Cc1ccc(O)c(I)c1)C(=O)O` [IOTYROSINE] has an IC50 (Tyrosine 3-monooxygenase) of 1.4 nM.
With `CC(C)C[C@H](NC(=O)[C@H](CCCCN)NC(=O)[C@H](CCCNC(=N)N)NC(=O)[C@H](C)NC(=O)[C@H](CO)NC(=O)[C@H](CCCCN)NC(=O)[C@H](CCCNC(=N)N)NC(=O)[C@H](C)NC(=O)CNC(=O)[C@@H](NC(=O)[C@H](Cc1ccccc1)NC(=O)CNC(=O)CNC(=O)[C@@H](N)Cc1ccccc1)[C@@H](C)O)C(=O)N[C@@H](C)C(=O)N[C@@H](CC(N)=O)C(=O)N[C@@H](CCC(N)=O)C(=O)O` [NOCICEPTIN] the ED50 (Rattus norvegicus [18]) was 10.3 nmol, the MED (Rattus norvegicus [19]) was 55 nmol and the ED50 (Rattus norvegicus [20]) was “inactive”. For the same compound, the MED (Rattus norvegicus [21]) was “inactive”, the ED50 (Rattus norvegicus [22]) was “inactive” and the MED (Rattus norvegicus [23]) was “inactive”. The ED50 (Rattus norvegicus [24]) was “inactive”, the MED (Rattus norvegicus [25]) was “inactive” and the Activity (Rattus norvegicus [26]) was “inactive”. For the same compound, the Activity (Rattus norvegicus [27]) was “inactive”, the Activity (Rattus norvegicus [28]) was “Dose-dependent effect” and the Activity (Rattus norvegicus [29]) was “Dose-dependent effect”.
Work on `OCC1(N2CCC(n3c(-c4ccc(F)c(Cl)c4)nc4ccccc43)CC2)CCCCCCC1` yielded an EC50 (Mu-type opioid receptor) of 1220 nM, an EC50 (Nociceptin receptor [1]) of 8.9 nM and a Ki (Nociceptin receptor [2]) of 0.73 nM.
`O=C(O)[C@@H]1C[C@H](CP(=O)(O)O)CCN1` [SELFOTEL] showed an IC50 (Glutamate NMDA receptor) of 1620 nM.
